Structures can show the parent of a compound that is named as a salt. Each block holds one compound with its values, some of them ahead of it.
Assays:
[1] = Solid-state stability of L-lactate crystal forms (XRPD); assay type: physicochemical; conditions: in air; 40° C. and 75% RH where stated
Description: Samples for X-ray powder diffraction (XRPD) data collection were gently ground by marble mortar and loaded into a crystallographic capillary (from Hampton Research, Quartz or Glass Type 10, 0.4 or 0.7 mm diameter). Diffraction patterns were collected at room temperature using CuKα radiation (λ=1.5418 Å) from a Rigaku rotating anode RU3HR, Osmic blue confocal optics, ¼ c goniometer and a Rigaku HTC image plate detector. 2D Images were collected while spinning φ axis with a detector to crystal distance of 250 mm. Data collection was controlled by CrystalClear software and 2D images were converted to 1D plot (20 vs. Intensity) by Datasqueeze (intensity averaged over the azimuthal angle 0<χ<360° for 2θ range 3-30° in 0.02° steps). In house program AstexXRPD was used for manipulation and visualisation of 1D XRPD patterns.

PKA = conditions: data published 2002; read-out: IC50, inhibition of PKA; cited from earlier work
PKG = conditions: data published 2002; read-out: IC50, inhibition of PKG; cited from earlier work
PKC = conditions: data published 2002; read-out: IC50, inhibition of PKC; cited from earlier work
OVCAR-3 tumour cells = conditions: concentrations of 50 and 100 microM; PKB amplified; cited from earlier work
[2] = tested on: P-glycoprotein-overexpressing subline of CCRF-CEM; conditions: subline of leukemic cell line CCRF-CEM; Chou et al. 1998; read-out: IC50 against P-glycoprotein-overexpressing subline; cited from earlier work
HCT116 cell line = experiment: Anti-proliferative activity, Alamar Blue assay; assay type: cell-based; conditions: Homo sapiens, HCT-116, 72 h, read-out: IC50 value against the HCT116 cell line
Procedure: The anti-proliferative activities of compounds for use in the combinations of the invention can be determined by measuring the ability of the compounds to inhibition of cell growth in a number of cell lines such as the human colon cancer cell line HCT116. […] The method is based on the ability of viable cells to reduce resazurin to its fluorescent product resorufin. […] The number of viable cells is determined by Alamar Blue assay as before. Cell lines can be obtained from the ECACC (European Collection of cell Cultures).

[3] = biological target: T1, Human Hsp90α N-terminal domain (Homo sapiens, UniProt P07900); experiment: Isothermal titration calorimetry (ITC) binding to Hsp90; conditions: 25 mM Tris, 100 mM NaCl, 1 mM MgCl2, 1 mM TCEP, 5% DMSO, pH 7.4
T1 construct: Cloning, expression, and purification of the Human Hsp90α N-terminal domain were performed according to published methods; made in house
Procedure: The ability of the compounds for use in the combinations of the invention to bind to human Hsp90 proteins was determined using isothermal titration calorimetry.
Isothermal titration calorimetry (ITC) experiments were performed with a VP-ITC titration calorimeter (Microcal Inc., Northampton, Mass., USA). […] All solutions were filtered and degassed prior to a titration being carried out. The enthalpy change resulting from each injection of ligand was obtained through integration of the calorimetric signal. Data were analysed using Origin 7.0 (Microcal Software Inc., Northampton, Mass.). Heats of dilution were estimated using the final injections of each individual titration and subtracted before data fitting. Different ITC experimental formats were employed in order to obtain compound dissociation constants (Kd's) over a wide range of affinities. […] In this type of experiment the stoichiometry parameter (N) was locked at 1 for data fitting.

[4] = Salt properties of the L-lactate of compound (1); assay type: physicochemical
APL patients = conditions: in vivo; cited from earlier work

SMILES: CC(C)c1cc(C(=O)N2Cc3ccc(CN4CCN(C)CC4)cc3C2)c(O)cc1O.C[C@H](O)C(=O)O [Form FL1, (2,4-dihydroxy-5-isopropyl-phenyl)-[5-(4-methyl-piperazin-1-ylmethyl)-1,3-dihydro-isoindol-2-yl]-methanone L-lactate]
stability of crystal form [1]: stable in air and at 40 °C and 75% RH for at least one month

SMILES: O=S(=O)(NCCNCC=C(c1ccccc1)c1ccccc1)c1cccc2cnccc12 [NL-71-101]
IC50 (PKA): 9 µM | IC50 (PKG): 36 µM | IC50 (PKC): 104 µM | Apoptosis in OVCAR-3 tumour cells (OVCAR-3 tumour cells): induced apoptosis

SMILES: C/C1=C/C[C@@H](/C(C)=C/c2csc(C)n2)OC(=O)C[C@H](O)C(C)(C)C(=O)[C@H](C)[C@@H](O)[C@@H](C)CCC1 [desoxyepothilone B]
IC50 [2]: 0.017 µM

SMILES: CC(C)c1cc(C(=O)N2Cc3ccc(C(=O)N4CCNCC4)cc3C2)c(O)cc1O [Example 54, (2,4-dihydroxy-5-isopropyl-phenyl)-[5-(piperazine-1-carbonyl)-1,3-dihydro-isoindol-2-yl]-methanone hydrochloride]
IC50 (HCT116 cell line): < 1 µM

Kd [3]: < 0.1 µM
SMILES: CC(C)c1cc(C(=O)N2Cc3ccc(CN4CCN(C)CC4)cc3C2)c(O)cc1O [Example 55, (2,4-dihydroxy-5-isopropyl-phenyl)-[5-(4-methyl-piperazin-1-ylmethyl)-1,3-dihydro-isoindol-2-yl]-methanone]

stability of crystal form [1]: transforms in air into form FL1
SMILES: CC(C)c1cc(C(=O)N2Cc3ccc(CN4CCN(C)CC4)cc3C2)c(O)cc1O.C[C@H](O)C(=O)O [Form FL3, (2,4-dihydroxy-5-isopropyl-phenyl)-[5-(4-methyl-piperazin-1-ylmethyl)-1,3-dihydro-isoindol-2-yl]-methanone L-lactate]

IC50 (HCT116 cell line): < 1 µM
SMILES: CC(C)c1cc(C(=O)N2Cc3ccccc3C2)c(O)cc1O [Example 5, (1,3-Dihydro-1H-isoindol-2-yl)-(2,4-dihydroxy-5-isopropyl-phenyl)-methanone]

stability of crystal form [1]: stable in air
SMILES: CC(C)c1cc(C(=O)N2Cc3ccc(CN4CCN(C)CC4)cc3C2)c(O)cc1O.C[C@H](O)C(=O)O [form FL2, (2,4-dihydroxy-5-isopropyl-phenyl)-[5-(4-methyl-piperazin-1-ylmethyl)-1,3-dihydro-isoindol-2-yl]-methanone L-lactate]

hygroscopicity [4]: non-hygroscopic
SMILES: CC(C)c1cc(C(=O)N2Cc3ccc(CN4CCN(C)CC4)cc3C2)c(O)cc1O.C[C@H](O)C(=O)O [(2,4-dihydroxy-5-isopropyl-phenyl)-[5-(4-methyl-piperazin-1-ylmethyl)-1,3-dihydro-isoindol-2-yl]-methanone L-lactate salt]
rate of solubility ([4]; compared with free base and hydrochloric and sulphuric acid salts): better rate of solubility than the free base and other salts tested

SMILES: CC1=C(/C=C/C(C)=C/C=C/C(C)=C/C(=O)O)C(C)(C)CCC1 [Tretinoin, all-trans retinoic acid]
remissions in APL patients (APL patients): 64-100%

Source: patent publication US8277807B2, “Pharmaceutical combinations” (Astex Therapeutics Limited, priority 2006, dated 2012)
